Key:
Format in all cases: in vivo
kochia (Kochia scoparia) = experiment: Test B pre-/postemergence plant response
In short: (§1)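 Greenhouse pots, loam/sand soil; compound formulated with surfactant in non-phytotoxic solvent. Preemergence soil spray and postemergence spray at 1–2 leaf stage run simultaneously. Visual injury, 0–100, about 10 days post-treatment.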

[1] = tested on: ragweed (common ragweed, Ambrosia elatior); experiment: Test B pre-/postemergence plant response
In short: as §1

[2] = tested on: Italian ryegrass (Lolium multiflorum); experiment: Test B pre-/postemergence plant response
In short: as §1

[3] = tested on: blackgrass (Alopecurus myosuroides); experiment: Test B postemergence plant response
In short: (§2)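 Injury was assessed visually about 10 days after treatment, scored from 0 (no effect) to 100 (complete control) by comparison with untreated controls. Test chemicals had been applied postemergence to potted plants at the one- to two-leaf stage, grown in loam soil and sand in a greenhouse.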

[4] = tested on: galium (catchweed bedstraw, Galium aparine); experiment: Test B postemergence plant response
In short: as §2

[5] = 31 g ai/ha, Postemergence, 0 to 100 scale, 0 no effect, 100 complete control
[6] = 31 g ai/ha, Preemergence, 0 to 100 scale where 0 is no effect and 100 is complete control
[7] = 125 g ai/ha, postemergence, 0 to 100 scale, 0 no effect, 100 complete control
[8] = Preemergence, 125 g ai/ha, 0 to 100 scale where 0 is no effect and 100 is complete control
[9] = Postemergence, 31 g ai/ha, 0 to 100 scale (0 no effect, 100 complete control)
[10] = Preemergence, 125 g ai/ha, 0 to 100 scale (0 no effect, 100 complete control)
[11] = Postemergence, 500 g ai/ha, 0 to 100 scale (0 no effect, 100 complete control)
[12] = Preemergence, 500 g ai/ha, 0 to 100 scale where 0 is no effect and 100 is complete control
[13] = Postemergence, 1000 g ai/ha, 0 to 100 scale (0 no effect, 100 complete control)
[14] = Preemergence, 1000 g ai/ha, 0 to 100 scale (0 no effect, 100 complete control)

SMILES: FC(F)c1cc(-c2c(Cl)cccc2Oc2ncc(Cl)cn2)on1 [Compound 120]
- Plant response rating, Kochia (kochia (Kochia scoparia); [5]): 90
- Plant response rating, Kochia (kochia (Kochia scoparia); [6]): 80
- Plant response rating, Kochia (kochia (Kochia scoparia); [7]): 90
- Plant response rating, Kochia (kochia (Kochia scoparia); [8]): 90
- Plant response rating, Ragweed [1, 5]: 40
- Plant response rating, Ragweed [1, 6]: 10
- Plant response rating, Ragweed [1, 7]: 70
- Plant response rating, Ryegrass, Italian [2, 5]: 30
- Plant response rating, Ryegrass, Italian [2, 6]: 40
- Plant response rating, Ryegrass, Italian [2, 7]: 90
- Plant response rating, Blackgrass [3, 5]: 70
- Plant response rating, Blackgrass [3, 7]: 90
- Plant response rating, Galium [4, 5]: 100
- Plant response rating, Galium [4, 7]: 100

SMILES: Fc1cccc(Oc2ncc(Cl)cn2)c1-c1cc(C(F)(F)F)no1 [Compound 228]
- Plant response rating, Kochia (kochia (Kochia scoparia); [6]): 70
- Plant response rating, Kochia (kochia (Kochia scoparia); [7]): 100
- Plant response rating, Kochia (kochia (Kochia scoparia); [9]): 100
- Kochia plant response rating (kochia (Kochia scoparia); [10]): 100
- Plant response rating, Ragweed [1, 6]: 0
- Plant response rating, Ragweed [1, 7]: 40
- Plant response rating, Ragweed [1, 9]: 30
- Ragweed plant response rating [1, 10]: 30
- Plant response rating, Ryegrass, Italian [2, 6]: 30
- Plant response rating, Ryegrass, Italian [2, 7]: 90
- Plant response rating, Ryegrass, Italian [2, 9]: 20
- Ryegrass, Italian plant response rating [2, 10]: 70
- Plant response rating, Blackgrass [3, 7]: 100
- Plant response rating, Blackgrass [3, 9]: 60
- Plant response rating, Galium [4, 7]: 100
- Plant response rating, Galium [4, 9]: 100

SMILES: Cc1cc(-c2ccccc2Oc2ncc(Cl)cn2)no1 [Compound 153]
- Plant response rating, Kochia (kochia (Kochia scoparia); [7]): 90
- Plant response rating, Kochia (kochia (Kochia scoparia); [11]): 90
- Kochia plant response rating (kochia (Kochia scoparia); [10]): 20
- Plant response rating, Kochia (kochia (Kochia scoparia); [12]): 100
- Plant response rating, Ragweed [1, 7]: 20
- Plant response rating, Ragweed [1, 11]: 100
- Ragweed plant response rating [1, 10]: 0
- Plant response rating, Ragweed [1, 12]: 40
- Plant response rating, Ryegrass, Italian [2, 7]: 30
- Plant response rating, Ryegrass, Italian [2, 11]: 60
- Ryegrass, Italian plant response rating [2, 10]: 0
- Plant response rating, Ryegrass, Italian [2, 12]: 20
- Plant response rating, Blackgrass [3, 7]: 40
- Plant response rating, Blackgrass [3, 11]: 90
- Plant response rating, Galium [4, 7]: 90
- Plant response rating, Galium [4, 11]: 100

SMILES: Fc1ccc(Oc2ncc(Cl)cn2)c(-c2cc(C(F)F)on2)c1F [Compound 113]
- Plant response rating, Kochia (kochia (Kochia scoparia); [5]): 100
- Plant response rating, Kochia (kochia (Kochia scoparia); [6]): 100
- Plant response rating, Kochia (kochia (Kochia scoparia); [7]): 100
- Plant response rating, Kochia (kochia (Kochia scoparia); [8]): 100
- Plant response rating, Ragweed [1, 5]: 50
- Plant response rating, Ragweed [1, 6]: 30
- Plant response rating, Ragweed [1, 7]: 80
- Plant response rating, Ryegrass, Italian [2, 5]: 20
- Plant response rating, Ryegrass, Italian [2, 6]: 10
- Plant response rating, Ryegrass, Italian [2, 7]: 70
- Plant response rating, Blackgrass [3, 5]: 60
- Plant response rating, Blackgrass [3, 7]: 90
- Plant response rating, Galium [4, 5]: 90
- Plant response rating, Galium [4, 7]: 100

SMILES: FC(F)(F)c1cc(-c2ccccc2Oc2ncc(Cl)cn2)ncn1 [Compound 54]
- Plant response rating, Kochia (kochia (Kochia scoparia); [7]): 100
- Plant response rating, Kochia (kochia (Kochia scoparia); [11]): 100
- Plant response rating, Kochia (kochia (Kochia scoparia); [8]): 80
- Plant response rating, Kochia (kochia (Kochia scoparia); [12]): 100
- Plant response rating, Ragweed [1, 7]: 50
- Plant response rating, Ragweed [1, 11]: 60
- Plant response rating, Ragweed [1, 8]: 60
- Plant response rating, Ragweed [1, 12]: 70
- Plant response rating, Ryegrass, Italian [2, 7]: 30
- Plant response rating, Ryegrass, Italian [2, 11]: 60
- Plant response rating, Ryegrass, Italian [2, 8]: 30
- Plant response rating, Ryegrass, Italian [2, 12]: 60
- Plant response rating, Blackgrass [3, 7]: 70
- Plant response rating, Blackgrass [3, 11]: 80
- Plant response rating, Galium [4, 7]: 100
- Plant response rating, Galium [4, 11]: 100

SMILES: Cc1cc(-c2c(F)cccc2Oc2ncc(Cl)cn2)on1 [Compound 229]
- Plant response rating, Kochia (kochia (Kochia scoparia); [6]): 80
- Plant response rating, Kochia (kochia (Kochia scoparia); [7]): 100
- Plant response rating, Kochia (kochia (Kochia scoparia); [9]): 90
- Kochia plant response rating (kochia (Kochia scoparia); [10]): 100
- Plant response rating, Ragweed [1, 6]: 70
- Plant response rating, Ragweed [1, 7]: 100
- Plant response rating, Ragweed [1, 9]: 100
- Ragweed plant response rating [1, 10]: 90
- Plant response rating, Ryegrass, Italian [2, 6]: 0
- Plant response rating, Ryegrass, Italian [2, 7]: 20
- Plant response rating, Ryegrass, Italian [2, 9]: 0
- Ryegrass, Italian plant response rating [2, 10]: 30
- Plant response rating, Blackgrass [3, 7]: 80
- Plant response rating, Blackgrass [3, 9]: 30
- Plant response rating, Galium [4, 7]: 100
- Plant response rating, Galium [4, 9]: 80

SMILES: Cc1cc(-c2ccccc2Oc2ncc(Cl)cn2)no1 [Compound 60]
- Plant response rating, Kochia (kochia (Kochia scoparia); [7]): 90
- Plant response rating, Kochia (kochia (Kochia scoparia); [11]): 100
- Plant response rating, Kochia (kochia (Kochia scoparia); [8]): 90
- Plant response rating, Kochia (kochia (Kochia scoparia); [12]): 100
- Plant response rating, Ragweed [1, 7]: 60
- Plant response rating, Ragweed [1, 11]: 90
- Plant response rating, Ragweed [1, 8]: 20
- Plant response rating, Ragweed [1, 12]: 50
- Plant response rating, Ryegrass, Italian [2, 7]: 0
- Plant response rating, Ryegrass, Italian [2, 11]: 80
- Plant response rating, Ryegrass, Italian [2, 8]: 0
- Plant response rating, Ryegrass, Italian [2, 12]: 30
- Plant response rating, Blackgrass [3, 7]: 50
- Plant response rating, Blackgrass [3, 11]: 100
- Plant response rating, Galium [4, 7]: 100
- Plant response rating, Galium [4, 11]: 100

SMILES: N#Cc1cccc(Oc2ncc(Cl)cn2)c1-c1cc(C(F)(F)F)on1 [Compound 157]
- Plant response rating, Kochia (kochia (Kochia scoparia); [7]): 90
- Plant response rating, Kochia (kochia (Kochia scoparia); [11]): 100
- Kochia plant response rating (kochia (Kochia scoparia); [10]): 100
- Plant response rating, Kochia (kochia (Kochia scoparia); [12]): 100
- Plant response rating, Ragweed [1, 7]: 10
- Plant response rating, Ragweed [1, 11]: 50
- Ragweed plant response rating [1, 10]: 20
- Plant response rating, Ragweed [1, 12]: 70
- Plant response rating, Ryegrass, Italian [2, 7]: 90
- Plant response rating, Ryegrass, Italian [2, 11]: 100
- Ryegrass, Italian plant response rating [2, 10]: 20
- Plant response rating, Ryegrass, Italian [2, 12]: 90
- Plant response rating, Blackgrass [3, 7]: 70
- Plant response rating, Blackgrass [3, 11]: 90
- Plant response rating, Galium [4, 7]: 100
- Plant response rating, Galium [4, 11]: 100

SMILES: FCc1cc(-c2c(F)cccc2Oc2ncc(Cl)cn2)no1 [Compound 57]
- Plant response rating, Kochia (kochia (Kochia scoparia); [13]): 90
- Plant response rating, Kochia (kochia (Kochia scoparia); [14]): 100
- Plant response rating, Ragweed [1, 13]: 100
- Plant response rating, Ragweed [1, 14]: 90
- Plant response rating, Ryegrass, Italian [2, 13]: 80
- Plant response rating, Ryegrass, Italian [2, 14]: 80
- Plant response rating, Blackgrass [3, 13]: 90
- Plant response rating, Galium [4, 13]: 90

SMILES: Clc1cnc(Oc2ccccc2-c2ccon2)nc1 [Compound 185]
- Plant response rating, Kochia (kochia (Kochia scoparia); [7]): 90
- Plant response rating, Kochia (kochia (Kochia scoparia); [11]): 100
- Kochia plant response rating (kochia (Kochia scoparia); [10]): 40
- Plant response rating, Kochia (kochia (Kochia scoparia); [12]): 100
- Plant response rating, Ragweed [1, 7]: 70
- Plant response rating, Ragweed [1, 11]: 100
- Ragweed plant response rating [1, 10]: 10
- Plant response rating, Ragweed [1, 12]: 90
- Plant response rating, Ryegrass, Italian [2, 7]: 0
- Plant response rating, Ryegrass, Italian [2, 11]: 0
- Ryegrass, Italian plant response rating [2, 10]: 0
- Plant response rating, Ryegrass, Italian [2, 12]: 0
- Plant response rating, Blackgrass [3, 7]: 0
- Plant response rating, Blackgrass [3, 11]: 50
- Plant response rating, Galium [4, 7]: 40
- Plant response rating, Galium [4, 11]: 70

Reference: patent US10131652B2, “Pyrimidinyloxy benzene derivatives as herbicides” (E. I. DU PONT DE NEMOURS AND COMPANY, priority 2014, dated 2018)
